Experimental data from patent US20250304609A1, “POLYMORPHIC FORM OF CHALCONE GLYCOSIDE COMPOUND, AND PREPARATION METHOD AND APPLICATION THEREOF” (ZHEJIANG YONGNING PHARMACEUTICAL CO., LTD., priority 2022, published 2025).
Several values for one entry are separate records, joined by “and”; a condition that tells them apart may be missing. Identical values can stand only once.

Columns and labels:
[1] = system: cerebral ischemia-reperfusion rat models; experiment: Cerebral ischemia-reperfusion (MCAO) rat model, different doses of YN17; assay type: in vivo, rats; settings: for Percentage of whole brain tissue infarction (%): 24 h, TTC staining, model 17.61 ± 7.45; for Percentage of whole brain tissue infarction (%) / Symptom score: Mean ± SD; for Symptom score: 24 h after administration, 0-5 points, model 3.3 ± 0.7; for content of GSH-px in serum / content of SOD in serum: 24 h after modeling, p<0.001
Protocol: Establishment of cerebral ischemia-reperfusion rat models. Rats were anesthetized with pentobarbital sodium (45 mg/kg), the neck skin was prepared, the surgical skin was disinfected with iodophor, the neck skin was cut in the middle, the neck muscles were separated, and the left common carotid artery (CCA) was separated until the branches of the internal carotid artery (ICA) and external carotid artery (ECA) were exposed. The proximal end of the common carotid artery was ligated, the distal end of the common carotid artery was clamped with an artery clip, an incision was made between the two ligated ends of the common carotid artery, the MCAO suture was inserted, and the suture was loosely ligated to the common carotid artery. The MCAO suture was inserted into the internal carotid artery, so that the suture reached the branches of the internal carotid artery to the middle cerebral artery (MCA), blocking the blood supply of the MCA and causing ischemia, the MCAO suture was fixed, and the surgical incision was sutured. After 1 h of ischemia, the MCAO suture was withdrawn into the common carotid artery to restore blood supply to the middle cerebral artery.
Drug administration. After the surgery, the rats were immediately injected with YN17 (5 mg/kg, 10 mg/kg and 20 mg/kg) via the tail vein, while the positive control group was injected with 3 mg/kg of edaravone via the tail vein. The rats were euthanized under anesthesia 24 hours after drug administration.
Animal neurobehavioral assessment. 24 hours after administration, the activity of the rats after landing was observed, and the behavior disorders of the rats were scored. The scoring method was as follows: • 0 points: no loss of neurological function and normal activity; • 1 point: failure to fully extend the left forepaw on the opposite side of the lesion; • 2 points: failure of the paralyzed side to resist the thrust from the opposite side; • 3 points: circling to the left side when crawling (tail-chasing sign); • 4 points: falling to the paralyzed side when shaking or walking; and • 5 points: trance or loss of consciousness.
Determination of the extent of cerebral infarction. The rats were euthanized under anesthesia 24 hours after drug administration. The brain was removed and rinsed with normal saline at 4° C. The brain was frozen at −80° C. for 10 min, and coronal slices with a thickness of 2 mm were cut from posterior to anterior, incubated in a 1% TTC solution for 10 min at 37° C., and fixed with formalin overnight after staining. The photos of the brain slices were taken and saved. The area of each brain slice and the area of the infarcted area were measured by Image Pro software, and the percentage of the area of focuses of infarct to the total area was calculated.

[2] = Stability tests (accelerated and long-term) of salt and crystal forms; assay type: physicochemical; settings: for Relevant substance, Single impurity / Relevant substance, Total impurities / Content determination: HPLC; for Content determination: content of C27H32O16; for Calcium element: ICP-MS; for pH: solution 5 mg per 1 ml in water
Protocol: The crystal form A for the stability data in the following table is prepared by the method of Example 1. The intermediate was adopted, water was used as a system, calcium carbonate was added for reaction, the solution was filtered and then allowed to stand for crystallization, and subjected to suction filtration, and the filter cake was washed with water and dried by suction, and dried under reduced pressure at 30° C. for 4-6 hours to obtain the crystal form A.
For stability tests and inspection methods, please see the attached stability solutions and quality standards.
[Character] Ocular estimate method: this sample was a yellow powder.
[Examination] PH value: this sample was taken and added with water to make a solution containing 5 mg per 1 ml. According to the pH value determination method (Chinese Pharmacopoeia 2020 Edition Fourth General Rule 0631), the pH value should be 5.0-7.0.
Relevant substances. Determination of relevant substances was performed according to high-performance liquid chromatography (Chinese Pharmacopoeia 2020 Edition Fourth General Rule 0512).
Test sample solution. An appropriate amount of this sample was taken, accurately weighed, dissolved by addition of a diluent, and diluted quantitatively to prepare a solution containing 1.0 mg per 1 ml. The solution was shaken well, filtered through a microporous filter membrane (0.45 μm), and the subsequent filtrate was taken.
Chromatographic conditions. Octadecylsilane bonded silica gel was used as a filler: […] potassium dihydrogen phosphate solution (1.36 g of potassium dihydrogen phosphate was taken into a 1000 mL measuring flask, dissolved by addition of water, and diluted to the scale) was used as a mobile phase A, methanol was used as a mobile phase B, and gradient elution was performed according to the following table; the detection wavelength was 375 nm; and the injection volume was 5 μl.
Limit If there were impurity peaks in the chromatogram of the test sample solution, the area of a single impurity peak shall not be greater than 0.005 times (0.5%) the total peak area, and the sum of the areas of each impurity peak shall not be greater than 0.015 times (1.5%) the total peak area. Chromatographic peaks less than 0.02% of the peak area of the main component can be ignored.
Water content This sample was taken, and according to the method for water content determination (Chinese Pharmacopoeia 2020 Edition Fourth General Rule 0832 First Method), the water content shall not exceed 15.0%.
Calcium element Determination of calcium element was performed according to inductively coupled plasma mass spectrometry (Chinese Pharmacopoeia 2020 Edition Fourth General Rule 0412).
[Content determination] Content determination was performed according to high-performance liquid chromatography (Chinese Pharmacopoeia 2020 Edition Fourth General Rule 0512).
Chromatographic conditions. Octadecylsilane bonded silica gel was used as a filler, methanol-acetonitrile-water-phosphoric acid (26:2:72:0.04) was used as a mobile phase, and detection wavelength was 403 nm; and the injection volume was 10 μl.
Determination method. The test sample solution and comparative sample solution were accurately measured, and injected into the liquid chromatograph separately, and the chromatogram was recorded. The content of C27H32O16 in the test sample was calculated by the peak area according to the external standard method.

H9c2 cells = experiment: Survival rate of H9c2 cells after oxygen-glucose deprivation/reperfusion (OGD/R); assay type: cell-based; settings: 20, 40 and 80 μg/ml
Protocol: (§1) Establishment of cellular oxygen-glucose deprivation/reperfusion (OGD/R) models. […] ischemia was simulated by incubation in a three-gas incubator (95% N2, 5% CO2) using sugar-free culture medium for 8-h culture, followed by transfer to a normal CO2 incubator for 12-h culture to simulate reperfusion.

H9c2 cardiomyocytes [3] = experiment: Hoechst 33342 staining method for cell apoptosis detection (OGD/R); assay type: cell-based
Protocol: as §1
(§2) Hoechst 33342 staining method for cell apoptosis detection. H9c2 cardiomyocytes were inoculated into a 6-well plate at a density of 2×10^5 cells/well. When the cells were completely adhered to the wall and grew to an appropriate degree of confluence, the cells were divided into a control group, a YN17 80 μg/ml group, a model group, and an OGD/R+80 μg/ml group. In the blank group, 2 mL of a fresh culture medium was added to each well and cultured in a CO2 incubator. The same amount of sugar-free DMEM was added to each well in the model group. After culture in a three-gas incubator for 8 h, the sugar-free DMEM was replaced with a fresh culture medium and transferred to a CO2 incubator for additional 12-h culture. The administration group was pretreated with different concentrations of YN17 for 24 h before OGD/R modeling. […] After the treatment of each group, staining was performed according to the instructions of the Hoechst 33342 staining solution, and the nucleus morphology and fluorescence intensity of each group were observed under a fluorescence microscope.

H9c2 cardiomyocytes [4] = experiment: Flow cytometry (Annexin V-FITC) for cell apoptosis detection (OGD/R); assay type: cell-based; settings: OGD/R + 80 μg/ml, 24 h pretreatment; control 7.9%, model 20.3%
Protocol: as §1
as §2, with “group.” for “group. After culture in a three-gas incubator for 8 h, the sugar-free DMEM was replaced with a fresh culture medium and transferred to a CO2 incubator for additional 12-h culture. The administration group was pretreated with different concentrations of YN17 for 24 h before OGD/R modeling.”
Flow cytometry for cell apoptosis detection. […] After the treatment of each group, staining was performed according to the instructions of the Annexin V-FITC cell apoptosis detection kit, and cell apoptosis was detected by a flow cytometer.

[5] = system: cerebral ischemia-reperfusion in rats; experiment: Cerebral ischemia-reperfusion rat model, comparative test of calcium salt YN17 and sodium salt YN17-ST; assay type: in vivo; settings: 10 mg/kg tail vein after 1 h ischemia; 24 h; Mean ± SEM; model 51.37 ± 2.66
Protocol: Establishment of cerebral ischemia-reperfusion rat models. Rats were anesthetized with pentobarbital sodium (45 mg/kg), the neck skin was prepared, the surgical skin was disinfected with iodophor, the neck skin was cut in the middle, the neck muscles were separated, and the left common carotid artery (CCA) was separated until the branches of the internal carotid artery (ICA) and external carotid artery (ECA) were exposed. […]
Determination of the extent of cerebral infarction. […] The area of each brain slice and the area of the infarcted area were measured by Image Pro software, and the percentage of the area of focuses of infarct to the total area was calculated.
The models were established and administered according to the similar method described above (YN17 (10 mg/kg) and YN17-ST (10 mg/kg) were injected into the tail vein immediately after blood supply to the middle cerebral artery of the rats was restored, and 5% glucose was injected into the tail vein in the model group. The rats were euthanized under anesthesia 24 hours after drug administration, and the extent of cerebral infarction was measured. The results were as follows: […]

[6] = 3 mg/kg tail vein, listed as edaravone
[7] = Accelerated 6 months, 40° C. ± 2° C./75% ± 5% RH
[8] = Long-term 6 months, 25° C. ± 2° C./60% ± 5% RH

Row | Structure (SMILES) | Character ([2]; 0 months) | Water content ([2]; 0 months) [%] | Relevant substance, Single impurity ([2]; 0 months) [%] | Relevant substance, Total impurities ([2]; 0 months) [%] | Content determination ([2]; 0 months) [%] | pH ([2]; 0 months) | Character [2, 7] | Water content [2, 7] [%] | Relevant substance, Single impurity [2, 7] [%] | Relevant substance, Total impurities [2, 7] [%] | Content determination [2, 7] [%] | pH [2, 7] | Character [2, 8] | Water content [2, 8] [%] | Relevant substance, Single impurity [2, 8] [%] | Relevant substance, Total impurities [2, 8] [%] | Content determination [2, 8] [%] | pH [2, 8] | Percentage of hemispheric tissue infarction (%) [5] | other results
1 | CC1=NN(c2ccccc2)C(=O)C1 [Edaravone, edaravone] |  |  |  |  |  |  |  |  |  |  |  |  |  |  |  |  |  |  |  | Percentage of whole brain tissue infarction (%) ([1]; 3 mg/kg tail vein): 10.58 ± 5.31 %; Percentage of whole brain tissue infarction (%) [1, 6]: significantly inhibit; Symptom score ([1]; 3 mg/kg tail vein): 2.1 ± 1.3; Symptom score [1, 6]: significantly improve; content of GSH-px in serum ([1]; 3 mg/kg): significantly increase; content of SOD in serum ([1]; 3 mg/kg): significantly increase
2 | O=C(/C=C/c1ccc(O)cc1)C1=C(O)C([C@@H]2O[C@H](CO)[C@@H](O)[C@H](O)[C@H]2O)=C([O-])[C@@](O)([C@@H]2O[C@H](CO)[C@@H](O)[C@H](O)[C@H]2O)C1=O.[Ca+2].[OH-] [YN17, (S)-3,6-dihydroxy-4-((E)-3-(4-hydroxyphenyl)acryloyl)-5-oxo-6-((2R,3R,4S,5S,6R)-3,4,5-trihydroxy-6-(hydroxymethyl)tetrahydro-2H-pyran-2-yl)-2-((2S,3R,4R,5S,6R)-3,4,5-trihydroxy-6-(hydroxymethyl)tetrahydro-2H-pyran-2-yl)cyclohexyl-1,3-diene-1-hydroxycalcium] | Yellow | 9.9 | 0.25 | 0.25 | 97.0 | 5.9 | Yellow | 10.1 | 0.25 | 0.54 | 96.5 | 5.8 | Yellow | 10.7 | 0.25 | 0.32 | 96.7 | 5.9 | 20.47% and 20.47 ± 3.56 % | Calcium element ([2]; 0 months): 3.19%; Calcium element [2, 7]: 3.26%; Calcium element [2, 8]: 3.21%; Stability (comparison of salt forms, relevant substances and contents) ([2]; summary of Table 1 and Table 2): very stable; survival rate of cells (H9c2 cells): can improve the survival rate of cells in different degrees; apoptosis characteristics of nuclei without OGD/R (H9c2 cardiomyocytes [3]; 80 μg/ml group without OGD/R): no obvious apoptosis characteristics; number of densely and heavily stained cell nuclei (apoptosis) (H9c2 cardiomyocytes [3]; OGD/R + 80 μg/ml, 24 h pretreatment): significantly reduced; apoptosis rate (H9c2 cardiomyocytes [4]): 13.3%; Symptom score ([1]; 5 mg/kg tail vein): 2.8 ± 1.0; content of GSH-px in serum ([1]; 5 mg/kg, 10 mg/kg and 20 mg/kg): significantly increase; content of SOD in serum ([1]; 10 mg/kg and 20 mg/kg): significantly increase
3 | O=C(C=Cc1ccc(O)cc1)C1=C(O)C(C2OC(CO)C(O)C(O)C2O)=C([O-])C(O)(C2OC(CO)C(O)C(O)C2O)C1=O.[Na+] (stereo not shown) [YN17-ST] | Yellow | 2.3 | 0.36 | 0.95 | 95.3 | 6.0 | Yellow | 7.3 | 6.41 | 9.53 | 81.5 | 6.8 | Yellow | 5.7 | 1.86 | 3.02 | 91.7 | 6.4 | 23.35% and 23.35 ± 7.37 % | 
